The source of these data is ChEMBL document CHEMBL1153501, “3,4-Disubstituted benzofuran P1' MMP-13 inhibitors: optimization of selectivity and reduction of protein binding” (Bioorg Med Chem Lett, 2009).

Some results are limits rather than exact numbers.

The target in data set [1] is Collagenase 3 (Bos taurus) (UniProt O77656). Briefly: Inhibition of IL1-stimulated MMP13-mediated bovine articular cartilage collagen degradation assessed as hydroxyproline content at 1 uM after 17 days.
The nature of data set [2]: Selectivity ratio of IC50 for MMP2 to IC50 for MMP13.
Data set [3] addresses Collagenase 3 (Bos taurus) (UniProt O77656). Briefly: Inhibition of IL1-stimulated MMP13-mediated bovine articular cartilage collagen degradation assessed as hydroxyproline content at 0.1 uM after 17 days.
The target is the same in data set [4]. The data set is described as follows: Inhibition of IL1-stimulated MMP13-mediated bovine articular cartilage collagen degradation assessed as hydroxyproline content at 0.01 uM after 17 days.
The target of data set [5] is Matrix metalloproteinase-9 (Homo sapiens, UniProt P14780). Briefly: Inhibition of MMP9.
In data set [6] the target is T1, A disintegrin and metalloproteinase with thrombospondin motifs 4 (Homo sapiens, UniProt O75173).
T1 sequence (O75173 whole entry): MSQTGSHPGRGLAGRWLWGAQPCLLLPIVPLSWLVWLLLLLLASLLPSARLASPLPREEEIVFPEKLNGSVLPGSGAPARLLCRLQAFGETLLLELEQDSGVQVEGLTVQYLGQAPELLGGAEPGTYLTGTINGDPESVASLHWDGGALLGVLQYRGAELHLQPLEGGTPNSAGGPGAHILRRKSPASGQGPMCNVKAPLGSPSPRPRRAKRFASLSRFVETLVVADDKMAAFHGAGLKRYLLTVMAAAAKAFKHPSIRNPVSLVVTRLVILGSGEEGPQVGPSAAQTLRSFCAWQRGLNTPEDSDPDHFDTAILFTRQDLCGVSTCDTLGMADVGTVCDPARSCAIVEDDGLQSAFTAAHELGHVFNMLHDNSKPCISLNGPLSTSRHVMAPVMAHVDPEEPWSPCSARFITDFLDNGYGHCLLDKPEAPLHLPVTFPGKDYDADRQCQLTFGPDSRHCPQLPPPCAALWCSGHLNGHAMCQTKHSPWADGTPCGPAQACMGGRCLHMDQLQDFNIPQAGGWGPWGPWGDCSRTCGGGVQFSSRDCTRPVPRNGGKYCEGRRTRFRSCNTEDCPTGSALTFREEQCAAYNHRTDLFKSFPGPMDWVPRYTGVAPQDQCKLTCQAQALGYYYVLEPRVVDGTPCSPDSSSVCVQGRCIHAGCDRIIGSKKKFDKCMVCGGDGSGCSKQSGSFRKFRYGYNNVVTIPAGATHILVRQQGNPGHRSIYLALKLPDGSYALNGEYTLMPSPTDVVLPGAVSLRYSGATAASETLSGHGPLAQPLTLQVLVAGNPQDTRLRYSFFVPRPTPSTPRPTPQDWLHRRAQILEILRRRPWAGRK
Briefly: Inhibition of aggrecanase-1.

Another data set has as its target Collagenase 3 (Homo sapiens, UniProt P45452). Briefly: Inhibition of MMP13.
The next data set has as its target Interstitial collagenase (Homo sapiens, UniProt P03956). Briefly: Inhibition of MMP1.
Data set [7] deals with Matrix metalloproteinase-14 (Homo sapiens, UniProt P50281). Briefly: Inhibition of MMP14.
In data set [8] the target is 72 kDa type IV collagenase (Homo sapiens, UniProt P08253). The data set is described as follows: Inhibition of MMP2.
The target in another data set is albumin (Oryctolagus cuniculus, UniProt P49065). The data set is described as follows: Protein binding in rabbit serum albumin by equilibrium dialysis assay. It counts as ADME. As to conditions: read-out: PB. Background: Equilibrium dialysis compares concentrations on both sides of a semipermeable membrane.
Chain of albumin (P49065 whole entry): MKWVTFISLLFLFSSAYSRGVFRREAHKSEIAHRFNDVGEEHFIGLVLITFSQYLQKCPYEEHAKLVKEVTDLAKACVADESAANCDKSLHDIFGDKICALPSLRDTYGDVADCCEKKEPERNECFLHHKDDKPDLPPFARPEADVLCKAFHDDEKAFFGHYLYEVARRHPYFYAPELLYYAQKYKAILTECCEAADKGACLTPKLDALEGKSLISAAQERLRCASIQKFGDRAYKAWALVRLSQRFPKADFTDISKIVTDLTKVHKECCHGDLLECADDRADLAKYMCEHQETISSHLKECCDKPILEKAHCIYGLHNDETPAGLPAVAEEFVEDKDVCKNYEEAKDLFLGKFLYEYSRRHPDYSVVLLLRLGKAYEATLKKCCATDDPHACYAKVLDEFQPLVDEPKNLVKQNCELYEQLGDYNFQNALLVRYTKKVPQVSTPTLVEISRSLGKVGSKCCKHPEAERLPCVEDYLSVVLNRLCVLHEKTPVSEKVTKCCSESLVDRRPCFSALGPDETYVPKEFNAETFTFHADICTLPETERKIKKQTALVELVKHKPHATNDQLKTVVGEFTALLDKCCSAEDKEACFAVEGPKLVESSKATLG

Chain of Matrix metalloproteinase-9 (P14780 whole entry): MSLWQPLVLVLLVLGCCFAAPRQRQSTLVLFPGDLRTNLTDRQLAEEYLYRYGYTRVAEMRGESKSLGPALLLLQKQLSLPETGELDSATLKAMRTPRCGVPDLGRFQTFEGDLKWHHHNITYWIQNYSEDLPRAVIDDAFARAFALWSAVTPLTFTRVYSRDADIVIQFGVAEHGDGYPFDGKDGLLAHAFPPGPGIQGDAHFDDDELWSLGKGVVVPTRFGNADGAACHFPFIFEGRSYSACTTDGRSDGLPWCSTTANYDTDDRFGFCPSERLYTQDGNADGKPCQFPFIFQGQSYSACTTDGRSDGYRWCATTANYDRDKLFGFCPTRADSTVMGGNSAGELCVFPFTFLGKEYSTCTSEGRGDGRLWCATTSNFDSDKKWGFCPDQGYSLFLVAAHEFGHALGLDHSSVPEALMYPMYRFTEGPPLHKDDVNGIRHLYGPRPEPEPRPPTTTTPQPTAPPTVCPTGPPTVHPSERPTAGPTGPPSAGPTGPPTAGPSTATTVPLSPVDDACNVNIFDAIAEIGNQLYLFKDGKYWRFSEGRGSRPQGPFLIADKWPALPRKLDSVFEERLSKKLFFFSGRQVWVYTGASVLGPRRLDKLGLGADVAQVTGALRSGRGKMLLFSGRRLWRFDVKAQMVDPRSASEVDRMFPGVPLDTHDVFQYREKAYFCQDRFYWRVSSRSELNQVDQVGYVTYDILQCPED
Chain of 72 kDa type IV collagenase (P08253 whole entry): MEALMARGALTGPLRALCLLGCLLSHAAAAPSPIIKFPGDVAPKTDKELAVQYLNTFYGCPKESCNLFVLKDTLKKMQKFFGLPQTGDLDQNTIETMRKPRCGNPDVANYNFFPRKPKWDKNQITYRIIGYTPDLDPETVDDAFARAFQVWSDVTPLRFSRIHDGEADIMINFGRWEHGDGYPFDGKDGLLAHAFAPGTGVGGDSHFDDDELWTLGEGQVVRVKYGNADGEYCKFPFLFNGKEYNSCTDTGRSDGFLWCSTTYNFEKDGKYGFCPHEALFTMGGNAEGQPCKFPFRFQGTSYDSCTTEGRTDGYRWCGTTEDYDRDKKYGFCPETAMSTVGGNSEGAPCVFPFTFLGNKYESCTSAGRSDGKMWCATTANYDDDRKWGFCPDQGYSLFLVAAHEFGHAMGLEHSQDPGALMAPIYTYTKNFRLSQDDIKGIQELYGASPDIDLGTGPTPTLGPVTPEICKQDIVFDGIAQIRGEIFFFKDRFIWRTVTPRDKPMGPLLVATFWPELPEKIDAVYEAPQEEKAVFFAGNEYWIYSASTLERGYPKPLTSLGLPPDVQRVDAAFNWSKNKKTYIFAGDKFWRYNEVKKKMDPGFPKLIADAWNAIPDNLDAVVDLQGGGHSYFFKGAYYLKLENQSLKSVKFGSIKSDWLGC
Chain of Interstitial collagenase (P03956 whole entry, looked up): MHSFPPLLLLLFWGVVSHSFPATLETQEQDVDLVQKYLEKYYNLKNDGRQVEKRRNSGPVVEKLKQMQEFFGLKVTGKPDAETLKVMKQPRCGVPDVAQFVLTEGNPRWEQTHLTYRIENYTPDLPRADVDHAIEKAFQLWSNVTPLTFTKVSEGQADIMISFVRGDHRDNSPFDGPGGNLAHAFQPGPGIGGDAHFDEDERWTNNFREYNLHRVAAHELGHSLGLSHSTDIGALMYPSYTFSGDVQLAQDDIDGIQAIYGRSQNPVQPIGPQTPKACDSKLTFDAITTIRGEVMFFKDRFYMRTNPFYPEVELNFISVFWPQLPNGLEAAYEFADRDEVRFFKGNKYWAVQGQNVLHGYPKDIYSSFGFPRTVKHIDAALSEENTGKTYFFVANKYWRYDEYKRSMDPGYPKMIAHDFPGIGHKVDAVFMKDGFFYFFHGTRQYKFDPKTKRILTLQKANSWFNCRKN

For orientation: inhibition means the relative decrease from the control value, in per cent. As usually defined, the IC50 is the midpoint of a concentration-inhibition curve. `Cc1c(C(=O)Nc2ccc(-c3ccc(S(=O)(=O)N[C@H](C(=O)O)C(C)C)cc3)cc2)oc2cccc(C#N)c12`: the inhibition in data set [1] is 100%; in [3], 87%; in data set [4] it was 23%. Further, the Ratio IC50 in data set [2] turned out to be 157. The IC50 in data set [5] was > 10 µM. Regarding `Cc1c(C(=O)Nc2ccc(-c3ccc(S(=O)(=O)N[C@H](C(=O)O)C(C)C)cc3)cc2)oc2cccc(Oc3ccccc3)c12`, in data set [2], the Ratio IC50 turned out to be 263. Regarding `Cc1c(C(=O)Nc2ccc(-c3ccc(S(=O)(=O)N[C@H](C(=O)O)C(C)C)cc3)cc2)oc2cccc(NS(C)(=O)=O)c12`, the inhibition in data set [1] was determined as 96%; in data set [3], 69%; in data set [4] it was 51%. Besides, the Ratio IC50 in [2] turned out to be 165. Besides, the IC50 in data set [6] is 2200 nM; on Collagenase 3 it was 13 nM; against Interstitial collagenase it was 12 µM; in [7] it was 11.2 µM; in [5] it was > 10 µM; in data set [8] it was 2.15 µM.

In the case of `Cc1c(C(=O)Nc2ccc(-c3ccc(S(=O)(=O)N[C@H](C(=O)O)C(C)C)cc3)nc2)oc2cccc(NS(C)(=O)=O)c12`, in data set [2], the Ratio IC50 stood at 188. Besides, the IC50 on Collagenase 3 was found to be 40 nM; in data set [8] it was 7.5 µM. `Cc1c(C(=O)Nc2ccc(-c3ccc(S(=O)(=O)N[C@H](C(=O)O)C(C)C)cc3)cc2)oc2cccc(-c3ccccc3)c12`: the Ratio IC50 in [2] turned out to be 243. Regarding `COc1c(Br)ccc2oc(C(=O)Nc3ccc(-c4ccc(S(=O)(=O)N[C@H](C(=O)O)C(C)C)cc4)cc3)c(C)c12`, in data set [2], the Ratio IC50 was 739. Besides, at albumin, the fraction unbound was < 0.01. Consider `CC#Cc1cccc2oc(C(=O)Nc3ccc(-c4ccc(S(=O)(=O)N[C@H](C(=O)O)C(C)C)cc4)cc3)c(C)c12`, for which the Ratio IC50 in [2] amounted to 1580. With `COCCCc1cccc2oc(C(=O)Nc3ccc(-c4ccc(S(=O)(=O)N[C@H](C(=O)O)C(C)C)cc4)cc3)c(C)c12`, in data set [2], the Ratio IC50 was determined as 364. For `Cc1c(C(=O)Nc2ccc(-c3ccc(S(=O)(=O)N[C@H](C(=O)O)C(C)C)cc3)cc2)oc2cccc(N(C)C)c12`, the Ratio IC50 in [2] amounted to 786. Regarding `Cc1c(C(=O)Nc2ccc(-c3ccc(S(=O)(=O)N[C@H](C(=O)O)C(C)C)cc3)cc2)oc2cccc(N3CCOCC3)c12`, in [2], the Ratio IC50 was determined as 51. The same measure, in the same setting: for `COc1cccc2oc(C(=O)Nc3ccc(-c4ccc(S(=O)(=O)N[C@H](C(=O)O)C(C)C)cc4)cc3)c(C)c12` the value was 110.

For the molecule `Cc1c(C(=O)Nc2ccc(-c3ccc(S(=O)(=O)N[C@H](C(=O)O)C(C)C)cc3)cc2)oc2cccc(O)c12`, the Ratio IC50 in data set [2] amounted to 63. Same read-out and setting: in the case of `CC(=O)Nc1cccc2oc(C(=O)Nc3ccc(-c4ccc(S(=O)(=O)N[C@H](C(=O)O)C(C)C)cc4)cc3)c(C)c12` it was 152. Consider `CCc1cccc2oc(C(=O)Nc3ccc(-c4ccc(S(=O)(=O)N[C@H](C(=O)O)C(C)C)cc4)cc3)c(C)c12`, for which the Ratio IC50 in data set [2] is 613.

For the molecule `COC(=O)C(C)(C)Oc1cccc2oc(C(=O)Nc3ccc(-c4ccc(S(=O)(=O)N[C@H](C(=O)O)C(C)C)cc4)cc3)c(C)c12`, the Ratio IC50 in data set [2] is 248. `Cc1c(C(=O)Nc2ccc(-c3ccc(S(=O)(=O)N[C@H](C(=O)O)C(C)C)cc3)cc2)oc2cccc(CCCO)c12`: the Ratio IC50 in data set [2] is 621. The same measure, in the same setting: in the case of `Cc1c(C(=O)Nc2ccc(-c3ccc(S(=O)(=O)N[C@H](C(=O)O)C(C)C)cc3)cc2)oc2cccc(N)c12` it was 75; in that of `CNc1cccc2oc(C(=O)Nc3ccc(-c4ccc(S(=O)(=O)N[C@H](C(=O)O)C(C)C)cc4)cc3)c(C)c12`, 108; in that of `Cc1c(C(=O)Nc2ccc(-c3ccc(S(=O)(=O)N[C@H](C(=O)O)C(C)C)cc3)cc2)oc2cccc(-c3ccoc3)c12`, 322. On to `Cc1cccc2oc(C(=O)Nc3ccc(-c4ccc(S(=O)(=O)N[C@H](C(=O)O)C(C)C)cc4)cc3)c(C)c12`, for which, in data set [2], the Ratio IC50 was 287. Still for that read-out and setting: for `C#Cc1cccc2oc(C(=O)Nc3ccc(-c4ccc(S(=O)(=O)N[C@H](C(=O)O)C(C)C)cc4)cc3)c(C)c12` the value was 98; for `CCOc1cccc2oc(C(=O)Nc3ccc(-c4ccc(S(=O)(=O)N[C@H](C(=O)O)C(C)C)cc4)cc3)c(C)c12`, 485.
